# Assay results published in the supplement of paper PMC10307832.
# Legend:
# Experiment in all cases: relative viability (nuclei count vs DMSO), 5 days (fraction); higher = more cells survive
# [1] = system: EMC-BAC-2
# Procedure, shortened: (§1)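 A single step with final 0.05% Triton X-100, 1% formaldehyde and 1 ug/ml Hoechst fixed the cells and stained nuclei 5 days after treatment. Lung cancer cell lines in 1536-well plates had been treated by pin tool the day after seeding with one drug alone or a fixed anchor-drug dose plus five library-drug doses (not always all listed) in √10 steps, and nuclei were counted on 4× images. Relative viability is the ratio of nuclei in treated wells to nuclei in vehicle wells, taken as the median of duplicate plates.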
# [2] = system: EPLC-272H
# Procedure, shortened: as §1
# [3] = system: H3255
# Procedure, shortened: as §1
# [4] = system: HCC-44
# Procedure, shortened: as §1
# [5] = system: HCC-827
# Procedure, shortened: as §1
# [6] = system: LCLC-103H
# Procedure, shortened: as §1
# [7] = system: LCLC-97TM1
# Procedure, shortened: as §1
# [8] = system: NCI-H1355
# Procedure, shortened: as §1
# [9] = system: NCI-H1395
# Procedure, shortened: as §1
# [10] = system: NCI-H1563
# Procedure, shortened: as §1
# [11] = system: NCI-H1651
# Procedure, shortened: as §1
# [12] = system: NCI-H1793
# Procedure, shortened: as §1
# [13] = system: NCI-H1944
# Procedure, shortened: as §1
# [14] = system: NCI-H2023
# Procedure, shortened: as §1
# [15] = system: NCI-H2085
# Procedure, shortened: as §1
# [16] = system: NCI-H2087
# Procedure, shortened: as §1
# [17] = system: NCI-H2405
# Procedure, shortened: as §1
# [18] = system: NCI-H322M
# Procedure, shortened: as §1
# [19] = system: NCI-H520
# Procedure, shortened: as §1
# [20] = system: NCI-H650
# Procedure, shortened: as §1
# [21] = system: SK-MES-1
# Procedure, shortened: as §1
# [22] = system: UMC-11
# Procedure, shortened: as §1
smiles,measurement,setting,value
O=C(O)c1ccc(-c2c[nH]c3ncc(-c4ccccc4)cc23)cc1C1CCCC1 + Cc1nc(NC(=O)N2CCC[C@H]2C(N)=O)sc1-c1ccnc(C(C)(C)C(F)(F)F)c1 [Alpelisib] (partner 2 µM),relative viability,[1]; first compound 0.04 µM,0.739
same,relative viability,[1]; first compound 0.1265 µM,0.782
same,relative viability,[1]; first compound 0.4 µM,0.719
same,relative viability,[1]; first compound 1.265 µM,0.713
same,relative viability,[2]; first compound 0.04 µM,0.79
same,relative viability,[2]; first compound 0.1265 µM,0.974
same,relative viability,[2]; first compound 0.4 µM,0.949
same,relative viability,[2]; first compound 1.265 µM,0.633
same,relative viability,[3]; first compound 0.04 µM,0.931
same,relative viability,[3]; first compound 0.1265 µM,0.776
same,relative viability,[3]; first compound 0.4 µM,0.715
same,relative viability,[3]; first compound 1.265 µM,0.769
same,relative viability,[4]; first compound 0.04 µM,0.889
same,relative viability,[4]; first compound 0.1265 µM,0.813
same,relative viability,[4]; first compound 0.4 µM,0.848
same,relative viability,[4]; first compound 1.265 µM,0.477
same,relative viability,[5]; first compound 0.04 µM,0.847
same,relative viability,[5]; first compound 0.1265 µM,0.988
same,relative viability,[5]; first compound 0.4 µM,0.89
same,relative viability,[5]; first compound 1.265 µM,0.747
same,relative viability,[6]; first compound 0.04 µM,1.01
same,relative viability,[6]; first compound 0.1265 µM,1.02
same,relative viability,[6]; first compound 0.4 µM,1.08
same,relative viability,[6]; first compound 1.265 µM,0.984
same,relative viability,[7]; first compound 0.04 µM,0.278
same,relative viability,[7]; first compound 0.1265 µM,0.313
same,relative viability,[7]; first compound 0.4 µM,0.239
same,relative viability,[7]; first compound 1.265 µM,0.264
same,relative viability,[8]; first compound 0.04 µM,0.795
same,relative viability,[8]; first compound 0.1265 µM,0.804
same,relative viability,[8]; first compound 0.4 µM,0.819
same,relative viability,[8]; first compound 1.265 µM,0.621
same,relative viability,[9]; first compound 0.04 µM,1.35
same,relative viability,[9]; first compound 0.1265 µM,1.01
same,relative viability,[9]; first compound 0.4 µM,1.1
same,relative viability,[9]; first compound 1.265 µM,0.769
same,relative viability,[10]; first compound 0.04 µM,1.01
same,relative viability,[10]; first compound 0.1265 µM,0.961
same,relative viability,[10]; first compound 0.4 µM,0.891
same,relative viability,[10]; first compound 1.265 µM,0.991
same,relative viability,[11]; first compound 0.04 µM,0.977
same,relative viability,[11]; first compound 0.1265 µM,1.02
same,relative viability,[11]; first compound 0.4 µM,0.613
same,relative viability,[11]; first compound 1.265 µM,0.713
same,relative viability,[12]; first compound 0.04 µM,0.622
same,relative viability,[12]; first compound 0.1265 µM,0.706
same,relative viability,[12]; first compound 0.4 µM,0.805
same,relative viability,[12]; first compound 1.265 µM,0.754
same,relative viability,[13]; first compound 0.04 µM,0.871
same,relative viability,[13]; first compound 0.1265 µM,0.94
same,relative viability,[13]; first compound 0.4 µM,0.833
same,relative viability,[13]; first compound 1.265 µM,0.745
same,relative viability,[14]; first compound 0.04 µM,0.629
same,relative viability,[14]; first compound 0.1265 µM,0.65
same,relative viability,[14]; first compound 0.4 µM,0.583
same,relative viability,[14]; first compound 1.265 µM,0.529
same,relative viability,[15]; first compound 0.04 µM,1.03
same,relative viability,[15]; first compound 0.1265 µM,0.98
same,relative viability,[15]; first compound 0.4 µM,0.944
same,relative viability,[15]; first compound 1.265 µM,0.741
same,relative viability,[16]; first compound 0.04 µM,1.01
same,relative viability,[16]; first compound 0.1265 µM,1.06
same,relative viability,[16]; first compound 0.4 µM,1.08
same,relative viability,[16]; first compound 1.265 µM,0.844
same,relative viability,[17]; first compound 0.04 µM,0.925
same,relative viability,[17]; first compound 0.1265 µM,0.746
same,relative viability,[17]; first compound 0.4 µM,0.796
same,relative viability,[17]; first compound 1.265 µM,0.591
same,relative viability,[18]; first compound 0.04 µM,0.979
same,relative viability,[18]; first compound 0.1265 µM,1
same,relative viability,[18]; first compound 0.4 µM,0.834
same,relative viability,[18]; first compound 1.265 µM,0.703
same,relative viability,[19]; first compound 0.04 µM,0.836
same,relative viability,[19]; first compound 0.1265 µM,1.09
same,relative viability,[19]; first compound 0.4 µM,0.866
same,relative viability,[19]; first compound 1.265 µM,0.852
same,relative viability,[20]; first compound 0.04 µM,1.19
same,relative viability,[20]; first compound 0.1265 µM,1.13
same,relative viability,[20]; first compound 0.4 µM,0.928
same,relative viability,[20]; first compound 1.265 µM,0.737
same,relative viability,[21]; first compound 0.04 µM,0.83
same,relative viability,[21]; first compound 0.1265 µM,1.01
same,relative viability,[21]; first compound 0.4 µM,0.834
same,relative viability,[21]; first compound 1.265 µM,0.803
same,relative viability,[22]; first compound 0.04 µM,0.938
same,relative viability,[22]; first compound 0.1265 µM,1.06
same,relative viability,[22]; first compound 0.4 µM,1.02
same,relative viability,[22]; first compound 1.265 µM,0.929
